These compounds were tested on Onchocerca gutturosa adult male worms (assay: Onchocerciasis in vitro screening model Onchocerca gutturosa (worm motility score and MTT/formazan colorimetry)). Settings: Onchocerca gutturosa, read-out: O. gutt Act class.

Row | SMILES | IC50
1 | Cc1cccnc1Nc1cc(-c2ccc(OC3CCOCC3)cn2)ns1 [Example 116, N-(3-methylpyridin-2-yl)-3-(5-(tetrahydro-2H-pyran-4-yloxy)pyridin-2-yl)isothiazol-5-amine] | 500 to 5000 nM
2 | COc1ccc(-c2cc(Nc3cc(OC(C)C)ccn3)sn2)nc1 [Example 117, N-(4-isopropoxypyridin-2-yl)-3-(5-methoxypyridin-2-yl)isothiazol-5-amine] | 500 to 5000 nM
3 | Cc1ccnc(Nc2cc(-c3ncccc3C)ns2)c1 [Example 118, 3-(3-methylpyridin-2-yl)-N-(4-methylpyridin-2-yl)isothiazol-5-amine] | 500 to 5000 nM
4 | c1ccc(-c2ccnc(Nc3cc(-c4ccccn4)ns3)c2)cc1 [Example 119, N-(4-phenylpyridin-2-yl)-3-(pyridin-2-yl)isothiazol-5-amine] | 500 to 5000 nM
5 | FC(F)(F)c1ccnc(Nc2nc(-c3ccccn3)cs2)c1 [Example 120, 4-(pyridin-2-yl)-N-(4-(trifluoromethyl)pyridin-2-yl)thiazol-2-amine] | < 200 nM
6 | COc1ccnc(Nc2nc(-c3ccccn3)cs2)c1 [Example 121, N-(4-methoxypyridin-2-yl)-4-(pyridin-2-yl)thiazol-2-amine] | 200 to 500 nM
7 | Oc1ccc(Nc2nc(-c3ccccn3)cs2)nc1 [Example 122, 6-(4-(pyridin-2-yl)thiazol-2-ylamino) pyridin-3-ol] | 500 to 5000 nM
8 | CCc1ccc(Nc2nc(-c3ccccn3)cs2)nc1 [Example 123, N-(5-ethylpyridin-2-yl)-4-(pyridin-2-yl)thiazol-2-amine] | < 200 nM
9 | Cc1cnc(Nc2nc(-c3ccccn3)cs2)c(C)c1 [Example 124, N-(3,5-dimethyl-pyridin-2-yl)-4-(pyridin-2-yl)thiazol-2-amine] | < 200 nM
10 | c1ccc(-c2cccnc2Nc2nc(-c3ccccn3)cs2)cc1 [Example 125, N-(3-phenylpyridin-2-yl)-4-(pyridin-2-yl)thiazol-2-amine] | 500 to 5000 nM
11 | c1ccc(-c2ccnc(Nc3nc(-c4ccccn4)cs3)c2)cc1 [Example 126, N-(4-phenylpyridin-2-yl)-4-(pyridin-2-yl)thiazol-2-amine] | < 200 nM
12 | CC(C)c1cnc(Nc2nc(-c3ccccn3)cs2)cc1C(F)(F)F [Example 127, N-(5-isopropyl-4-(trifluoro-methyl)pyridin-2-yl)-4-(pyridin-2-yl)thiazol-2-amine] | 500 to 5000 nM
13 | c1ccc(-c2csc(Nc3cc4ccccc4cn3)n2)nc1 [Example 128, N-(isoquinolin-3-yl)-4-(pyridin-2-yl)thiazol-2-amine] | < 200 nM
14 | Cc1cnc(Nc2nc(-c3ccccn3)cs2)cc1C(F)(F)F [Example 129, N-(5-methyl-4-(trifluoro-methyl)pyridin-2-yl)-4-(pyridin-2-yl)thiazol-2-amine] | < 200 nM
15 | CCc1cnc(Nc2nc(-c3ccccn3)cs2)cc1C(F)(F)F [Example 130, N-(5-ethyl-4-(trifluoro-methyl)pyridin-2-yl)-4-(pyridin-2-yl)thiazol-2-amine] | < 200 nM
16 | CN1CCN(c2ccc(Nc3nc(-c4ccccn4)cs3)nc2)CC1 [Example 131, N-(5-(4-methyl-piperazin-1-yl)pyridin-2-yl)-4-(pyridin-2-yl)thiazol-2-amine] | < 200 nM
17 | Cc1ccnc(Nc2nc(-c3ccccn3)c(C)s2)c1 [Example 132, 5-methyl-N-(4-methyl-pyridin-2-yl)-4-(pyridin-2-yl)thiazol-2-amine] | 200 to 500 nM
18 | c1ccc(-c2csc(Nc3ccc4cc[nH]c4n3)n2)nc1 [Example 134, 4-(pyridin-2-yl)-N-(1H-pyrrolo [2,3-b]pyridin-6-yl)thiazol-2-amine] | < 200 nM
19 | c1ccc(-c2csc(Nc3ccc4[nH]ccc4n3)n2)nc1 [Example 135, 4-(pyridin-2-yl)-N-(1H-pyrrolo [3,2-b]pyridin-5-yl)thiazol-2-amine] | 500 to 5000 nM
20 | c1ccc(-c2csc(Nc3cc4[nH]ccc4cn3)n2)nc1 [Example 136, 4-(pyridin-2-yl)-N-(1H-pyrrolo [3,2-c]pyridin-6-yl)thiazol-2-amine] | < 200 nM
21 | c1ccc(-c2csc(Nc3cc4cc[nH]c4cn3)n2)nc1 [Example 137, 4-(pyridin-2-yl)-N-(1H-pyrrolo [2,3-c]pyridin-5-yl)thiazol-2-amine] | 500 to 5000 nM
22 | c1ccc(-c2csc(Nc3ccc(C4CCCC4)cn3)n2)nc1 [Example 138, N-(5-cyclopentyl-pyridin-2-yl)-4-(pyridin-2-yl)thiazol-2-amine] | < 200 nM
23 | NC(=O)c1ccnc(Nc2nc(-c3ccccn3)cs2)c1 [Example 139, 2-(4-(pyridin-2-yl)thiazol-2-ylamino) iso-nicotinamide] | < 200 nM

Row | SMILES | IC50
24 | FC(F)(F)c1cc(Nc2nc(-c3ccccn3)cs2)ncc1Br [Example 140, N-(5-bromo-4-(trifluoro-methyl)pyridin-2-yl)-4-(pyridin-2-yl)thiazol-2-amine] | 500 to 5000 nM
25 | O=C(NCC(F)(F)F)c1ccnc(Nc2nc(-c3ccccn3)cs2)c1 [Example 141, 2-(4-(pyridin-2-yl)thiazol-2-ylamino)-N-(2,2,2-trifluoroethyl) isonicotinamide] | 200 to 500 nM
26 | COCCNC(=O)c1ccnc(Nc2nc(-c3ccccn3)cs2)c1 [Example 142, N-(2-methoxyethyl)-2-(4-(pyridin-2-yl)thiazol-2-ylamino) isonicotinamide] | 200 to 500 nM
27 | O=C(c1ccnc(Nc2nc(-c3ccccn3)cs2)c1)N1CCOCC1 [Example 143, morpholino (2-(4-(pyridin-2-yl)thiazol-2-ylamino)pyridin-4-yl)methanone] | 200 to 500 nM
28 | O=C(c1ccnc(Nc2nc(-c3ccccn3)cs2)c1)N1CCNCC1 [Example 144, piperazin-1-yl(2-(4-(pyridin-2-yl)thiazol-2-ylamino)pyridin-4-yl)methanone] | 200 to 500 nM
29 | O=C(c1ccnc(Nc2nc(-c3ccccn3)cs2)c1)N1CCC(F)(F)CC1 [Example 145, (4,4-difluoro-piperidin-1-yl)(2-(4-(pyridin-2-yl)thiazol-2-ylamino)pyridin-4-yl)methanone] | < 200 nM
30 | CC(C)NC(=O)c1ccnc(Nc2nc(-c3ccccn3)cs2)c1 [Example 146, N-isopropyl-2-(4-(pyridin-2-yl)thiazol-2-ylamino) isonicotinamide] | < 200 nM
31 | O=C(NC1CCCC1)c1ccnc(Nc2nc(-c3ccccn3)cs2)c1 [Example 147, N-cyclopentyl-2-(4-(pyridin-2-yl)thiazol-2-ylamino) isonicotinamide] | < 200 nM
32 | C[C@@H](CO)NC(=O)c1ccnc(Nc2nc(-c3ccccn3)cs2)c1 [Example 148, (S)-N-(1-hydroxy-propan-2-yl)-2-(4-(pyridin-2-yl)thiazol-2-ylamino) isonicotinamide] | 200 to 500 nM
33 | O=C1CN(C(=O)c2ccnc(Nc3nc(-c4ccccn4)cs3)c2)CCN1 [Example 149, 4-(2-(4-(pyridin-2-yl)thiazol-2-ylamino)isonicotinoyl) piperazin-2-one] | 500 to 5000 nM
34 | O=C(NC1CCC(C(F)(F)F)CC1)c1ccnc(Nc2nc(-c3ccccn3)cs2)c1 (stereo not shown) [Example 150, 2-(4-(pyridin-2-yl)thiazol-2-ylamino)-N-(4-(trifluoromethyl)cyclohexyl) isonicotinamide] | < 200 nM
35 | O=C(NC1CCC(F)(F)CC1)c1ccnc(Nc2nc(-c3ccccn3)cs2)c1 [Example 151, N-(4,4-difluoro-cyclohexyl)-2-(4-(pyridin-2-yl)thiazol-2-ylamino) isonicotinamide] | < 200 nM
36 | O=C(NCCN1CCCC1)c1ccnc(Nc2nc(-c3ccccn3)cs2)c1 [Example 152, 2-(4-(pyridin-2-yl)thiazol-2-ylamino)-N-(2-(pyrrolidin-1-yl)ethyl) isonicotinamide] | 200 to 500 nM
37 | O=C(c1ccnc(Nc2nc(-c3ccccn3)cs2)c1)N1CC(F)(F)C1 [Example 153, (3,3-difluoroazetidin-1-yl)(2-(4-(pyridin-2-yl)thiazol-2-ylamino)pyridin-4-yl)methanone] | < 200 nM
38 | O=C(NCCO)c1ccnc(Nc2nc(-c3ccccn3)cs2)c1 [Example 154, N-(2-hydroxyethyl)-2-(4-(pyridin-2-yl)thiazol-2-ylamino) isonicotinamide] | 200 to 500 nM
39 | O=C(N1CCN(c2ccc(Nc3nc(-c4ccccn4)cs3)nc2)CC1)C1(C(F)(F)F)CC1 [Example 155, (4-(6-(4-(pyridin-2-yl)thiazol-2-ylamino)pyridin-3-yl)piperazin-1-yl)(1-(trifluoromethyl)cyclopropyl) methanone] | < 200 nM
40 | CC(C)(O)C(=O)N1CCN(c2ccc(Nc3nc(-c4ccccn4)cs3)nc2)CC1 [Example 156, 2-hydroxy-2-methyl-1-(4-(6-(4-(pyridin-2-yl)thiazol-2-ylamino)pyridin-3-yl)piperazin-1-yl)propan-1-one] | < 200 nM
41 | O=C(O)C1CCCN(c2ccc(Nc3nc(-c4ccccn4)cs3)nc2)C1 (stereo not shown) [Example 157, 1-(6-(4-(pyridin-2-yl)thiazol-2-ylamino)pyridin-3-yl)piperidine-3-carboxylic acid] | 500 to 5000 nM
42 | CN(C)C(=O)C1CCCN(c2ccc(Nc3nc(-c4ccccn4)cs3)nc2)C1 (stereo not shown) [Example 158, N,N-dimethyl-1-(6-(4-(pyridin-2-yl)thiazol-2-ylamino)pyridin-3-yl)piperidine-3-carboxamide] | < 200 nM
43 | CNC(=O)C1CCCN(c2ccc(Nc3nc(-c4ccccn4)cs3)nc2)C1 (stereo not shown) [Example 159, N-methyl-1-(6-(4-(pyridin-2-yl)thiazol-2-ylamino)pyridin-3-yl)piperidine-3-carboxamide] | 200 to 500 nM
44 | O=C(NCC(F)(F)F)C1CCCN(c2ccc(Nc3nc(-c4ccccn4)cs3)nc2)C1 (stereo not shown) [Example 160, 1-(6-(4-(pyridin-2-yl)thiazol-2-ylamino)pyridin-3-yl)-N-(2,2,2-trifluoroethyl) piperidine-3-carboxamide] | < 200 nM
45 | Cn1cc(-c2ccnc(Nc3nc(-c4ccccn4)cs3)c2)cn1 [Example 161, N-(4-(1-methyl-1H-pyrazol-4-yl)pyridin-2-yl)-4-(pyridin-2-yl)thiazol-2-amine] | < 200 nM
46 | Cc1sc(Nc2cc(C(F)(F)F)ccn2)nc1-c1ccccn1 [Example 162, 5-methyl-4-(pyridin-2-yl)-N-(4-(trifluoromethyl)pyridin-2-yl) thiazol-2-amine] | < 200 nM
